Results from patent publication US20100022542A1, “COMPOUNDS EXHIBITING THROMBOPOIETIN RECEPTOR AGONISM” (Shionogi & Co., Ltd., priority 2000, published 2010).

Molecular target: T1, human TPO receptor (hTPOR) (Homo sapiens, UniProt P40238)
T1 construct: expressed in transfected cells; host or cells: BaF-B03 (murine IL-3 dependent cell line)
T1 sequence (P40238 26-635): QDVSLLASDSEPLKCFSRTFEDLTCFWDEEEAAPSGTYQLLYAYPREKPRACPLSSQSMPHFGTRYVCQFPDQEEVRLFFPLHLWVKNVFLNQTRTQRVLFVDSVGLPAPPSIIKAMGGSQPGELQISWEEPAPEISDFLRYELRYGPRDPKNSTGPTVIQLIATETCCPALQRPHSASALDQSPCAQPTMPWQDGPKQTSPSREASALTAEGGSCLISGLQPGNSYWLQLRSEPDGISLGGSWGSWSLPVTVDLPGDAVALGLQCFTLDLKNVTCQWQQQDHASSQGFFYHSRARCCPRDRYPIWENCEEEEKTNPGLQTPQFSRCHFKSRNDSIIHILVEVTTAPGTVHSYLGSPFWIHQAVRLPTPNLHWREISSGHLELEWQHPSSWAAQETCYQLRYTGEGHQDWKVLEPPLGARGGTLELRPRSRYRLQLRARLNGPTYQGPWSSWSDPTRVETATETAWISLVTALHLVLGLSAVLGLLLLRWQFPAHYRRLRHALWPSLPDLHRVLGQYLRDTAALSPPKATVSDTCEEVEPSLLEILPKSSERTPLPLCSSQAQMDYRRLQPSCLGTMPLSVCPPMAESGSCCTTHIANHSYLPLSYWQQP
Experiment: Proliferation of TPO dependent BaF/hTPOR cells, WST-1, thrombopoietic activity ED50 (Test Example 3)
Format: cell-based
Conditions: 20 h incubation then WST-1 4 h, absorbance at 450 nm
Excerpt: FIG. 2: The chart represents proliferation of the human TPO dependent cells bearing human TPO receptors by the present invention compound, wherein the x-axis is concentration of the present invention compound, and the y-axis is the absorbance as an indicator of cell proliferation. Open circles indicate a response of human TPO, and closed circles indicate a response of the compound (B-1).
The TPO dependent BaF/hTPOR cell line which was established by introducing human TPO receptor (hTPOR) into BaF-B03 cells according to Collins et al (J. Cell. Physiol., 137:293-298 (1988)) was used to test the thrombopoietic activity of the present compound. The DNA sequences and encoded peptide sequences for human hTPOR have been described by Vigon et al (Proc. Natl. Acad. Sci. USA, 89:5640-5644 (1992)). TPO dose not have any ability to support proliferation of interleukin-3 dependent parental cell line BaF-B03. BAF/hTPOR cells were maintained in RPMI medium and WEHI-3B conditioned medium as a source of murine interleukin-3 (IL-3). These cells were washed and resuspended in RPMI medium without a source of murine IL-3 and seeded into each well of 96-well microtiter plates at a density of 5×10^4 cells per well in the absence or presence of various concentration of hTPO or the present compound. After incubation at 37° C. for 20 hours in the 5% CO2 incubator, 10% WST-1 reagent (Takara Biomedicals, Japan) was added to each wells and the cells were further incubated for 4 hours. Effect of the present compound on the growth of BAF/mTPOR cell line which was established by introducing murine TPO receptor (mTPOR) into BAF-B03 cells is shown in FIG. 3. Table 8 exemplifies the ED50 for tested compounds of the present invention, wherein the ED50 is the half concentration of the concentration showing the maximum thrombopoietic activity.

Compound `CC(=Cc1ccc(C(=O)Nc2nc(-c3ccc(Cl)c(Cl)c3)cs2)cc1)C(=O)N(C)C` [Compound B-5] has an EC50 of 0.123 µM.
Compound `O=C(O)/C(Cl)=C/c1ccc(C(=O)Nc2nc(-c3cccc(C(F)(F)F)c3F)cs2)cc1` [Compound A-57] has an EC50 of 0.019 µM.
With `O=C(O)/C(Cl)=C/c1ccc(C(=O)Nc2nc(-c3ccc(F)c(Cl)c3)cs2)cc1` [Compound A-75] the EC50 was 0.073 µM.
`O=C(O)/C=C/c1ccc(C(=O)Nc2nc(-c3ccc(Cl)c(Cl)c3)cs2)cc1` [Compound A-4] gave an EC50 of 0.124 µM.
`C/C(=C\c1ccc(C(=O)Nc2nc(-c3ccc(Cl)c(Cl)c3)cs2)cc1)C(=O)NC(C)c1ccccc1` (stereo not drawn) [Compound B-33] gave an EC50 of 0.372 µM.
Compound `C/C(=C\c1ccc(C(=O)Nc2nc(-c3ccc(F)c(F)c3)cs2)cc1)C(N)=O` [Compound B-25] has an EC50 of 0.367 µM.
`O=C(O)/C(Cl)=C/c1ccc(C(=O)Nc2nc(-c3ccc(C(F)(F)F)cc3)cs2)cc1` [Compound A-40] was tested, and the EC50 was 0.047 µM.
`O=C(O)/C(Cl)=C/c1ccc(C(=O)Nc2nc(-c3cccc(OC(F)(F)F)c3)cs2)cc1` [Compound A-32] gave an EC50 of 0.04 µM.
Compound `C/C(=C\c1ccc(C(=O)Nc2nc(-c3cccc(F)c3)cs2)cc1)C(=O)O` [Compound A-18] has an EC50 of 0.132 µM.
With `Cc1sc(NC(=O)c2ccc(/C=C(\Cl)C(=O)O)cc2)nc1-c1cccc(C(F)(F)F)c1` [Compound J-14] the EC50 was 0.036 µM.
`O=C(O)C(F)=Cc1ccc(C(=O)Nc2nc(-c3cccc(OC(F)(F)F)c3)cs2)cc1` [Compound A-45] showed an EC50 of 0.203 µM.
`O=C(O)/C(Cl)=C/c1ccc(C(=O)Nc2nc(-c3cccc(F)c3)cs2)cc1` [Compound A-30] was tested, and the EC50 was 0.274 µM.
`C/C(=C\c1ccc(C(=O)Nc2nc(-c3ccc(Cl)c(Cl)c3)cs2)cc1)C(=O)NCC(F)(F)F` [Compound B-31] showed an EC50 of 0.178 µM.
Compound `CCOC(=O)/C(C)=C/c1ccc(C(=O)Nc2nc(-c3cccc(C(F)(F)F)c3)cs2)cc1` [Compound A-27] has an EC50 of 0.193 µM.
For `O=C(O)/C(Cl)=C/c1ccc(C(=O)Nc2nc(-c3cccc(Cl)c3Cl)cs2)cc1` [Compound A-91], the EC50 was 0.076 µM.
For `CCOC(=O)C(Cl)=Cc1ccc(C(=O)Nc2nc(-c3ccc(Cl)c(Cl)c3)cs2)cc1` [Compound A-11], the EC50 was 0.0335 µM.
With `O=C(O)CCc1ccc(C(=O)Nc2nc(-c3ccc(Cl)c(Cl)c3)cs2)cc1` [Compound G-2] the EC50 was 0.299 µM.
In the case of `CC/C(=C\c1ccc(C(=O)Nc2nc(-c3ccc(Cl)c(Cl)c3)cs2)cc1)C(=O)NCc1ccccc1` [Compound B-20], the EC50 is reported as 0.425 µM.
With `C#CCNC(=O)/C(C)=C/c1ccc(C(=O)Nc2nc(-c3ccc(Cl)c(Cl)c3)cs2)cc1` [Compound B-40] the EC50 was 0.201 µM.
`CCCCCc1ccc(-c2csc(NC(=O)c3ccc(/C=C(\Cl)C(=O)O)cc3)n2)cc1` [Compound A-49] was tested, and the EC50 was 0.116 µM.
In the case of `CC/C(=C\c1ccc(C(=O)Nc2nc(-c3ccc(Cl)c(Cl)c3)cs2)cc1)C(N)=O` [Compound B-17], the EC50 is reported as 0.244 µM.
In the case of `C/C(=C\c1ccc(C(=O)Nc2nc(-c3ccc(Cl)c(Cl)c3)cs2)cc1)C(=O)NC1CCCC1` [Compound B-38], the EC50 is reported as 0.239 µM.
With `C/C(=C\c1ccc(C(=O)Nc2nc(-c3ccc(Cl)c(Cl)c3)cs2)cc1)C(=O)NC1CC1` [Compound B-36] the EC50 was 0.163 µM.
With `CCC(=Cc1ccc(C(=O)Nc2nc(-c3ccc(Cl)c(Cl)c3)cs2)cc1)C(=O)O` [Compound A-6] the EC50 was 0.248 µM.
With `COC(=O)C#Cc1ccc(C(=O)Nc2nc(-c3ccc(Cl)c(Cl)c3)cs2)cc1` [Compound L-1] the EC50 was 0.208 µM.
Work on `C/C(=C\c1ccc(C(=O)Nc2nc(-c3ccc(Cl)c(Cl)c3)cs2)cc1)C(=O)NCCN(C)C` [Compound B-27] yielded an EC50 of 0.707 µM.
With `CCCCCc1cccc2c1CCc1sc(NC(=O)c3ccc(/C=C(\Cl)C(=O)O)cc3)nc1-2` [Compound J-15] the EC50 was 0.011 µM.
For `O=C(O)/C(Cl)=C/c1ccc(C(=O)Nc2nc(-c3ccc(F)cc3F)cs2)cc1` [Compound A-56], the EC50 was 0.066 µM.
Compound `O=C(O)/C(Cl)=C/c1ccc(C(=O)Nc2nc(-c3ccc(C(F)(F)F)cc3F)cs2)cc1` [Compound A-60] has an EC50 of 0.023 µM.
Work on `O=C(O)/C(Cl)=C/c1ccc(C(=O)Nc2nc(-c3ccc(F)c(Br)c3)cs2)cc1` [Compound A-63] yielded an EC50 of 0.025 µM.
Work on `CC(=Cc1ccc(C(=O)Nc2nc(-c3ccc(Cl)c(Cl)c3)cs2)cc1)S(=O)(=O)N(C)C` [Compound F-1] yielded an EC50 of 0.174 µM.
`CSc1ccc(-c2csc(NC(=O)c3ccc(/C=C(\Cl)C(=O)O)cc3)n2)cc1` [Compound A-78] was tested, and the EC50 was 0.408 µM.
`C/C(=C\c1ccc(C(=O)Nc2nc(-c3ccc(Cl)c(Cl)c3)cs2)cc1)C(=O)NC[Si](C)(C)C` [Compound B-34] was tested, and the EC50 was 0.398 µM.
In the case of `Cc1sc(NC(=O)c2ccc(/C=C(\Cl)C(=O)O)cc2)nc1-c1cccc(C(F)(F)F)c1F` [Compound J-12], the EC50 is reported as 0.107 µM.
`COC(=O)CCc1ccc(C(=O)Nc2nc(-c3ccc(Cl)c(Cl)c3)cs2)cc1` [Compound G-1] gave an EC50 of 0.261 µM.
`O=C(O)/C(Cl)=C/c1ccc(C(=O)Nc2nc(-c3cc(C(F)(F)F)ccc3F)cs2)cc1` [Compound A-79] gave an EC50 of 0.41 µM.
Compound `O=C(O)/C(Cl)=C/c1ccc(C(=O)Nc2nc(-c3cccc(-c4ccc(F)cc4)c3F)cs2)cc1` [Compound A-88] has an EC50 of 0.028 µM.
`CCOC(=O)/C=C/c1ccc(C(=O)Nc2nc(-c3ccc(Cl)c(Cl)c3)cs2)cc1` [Compound A-3] gave an EC50 of 0.218 µM.
Work on `O=C(O)/C(F)=C/c1ccc(C(=O)Nc2nc(-c3ccc(F)cc3)cs2)cc1` [Compound A-68] yielded an EC50 of 0.222 µM.
With `CCOC(=O)C(=Cc1ccc(C(=O)Nc2nc(-c3ccc(Cl)c(Cl)c3)cs2)cc1)CC` [Compound A-5] the EC50 was 0.984 µM.
Compound `O=C(O)C(F)=Cc1ccc(C(=O)Nc2nc(-c3ccc(C(F)(F)F)cc3)cs2)cc1` [Compound A-46] has an EC50 of 0.263 µM.
Work on `COCCNC(=O)/C(C)=C/c1ccc(C(=O)Nc2nc(-c3ccc(Cl)c(Cl)c3)cs2)cc1` [Compound B-42] yielded an EC50 of 0.236 µM.
Work on `CSCCCNC(=O)/C(C)=C/c1ccc(C(=O)Nc2nc(-c3ccc(Cl)c(Cl)c3)cs2)cc1` [Compound B-32] yielded an EC50 of 0.123 µM.
In the case of `O=C(O)/C(Cl)=C/c1ccc(C(=O)Nc2nc(-c3ccc(-c4ccccc4)cc3)cs2)cc1` [Compound A-47], the EC50 is reported as 0.512 µM.
In the case of `CONC(=O)/C(C)=C/c1ccc(C(=O)Nc2nc(-c3ccc(Cl)c(Cl)c3)cs2)cc1` [Compound B-46], the EC50 is reported as 0.213 µM.
Work on `O=C(O)/C(Cl)=C/c1ccc(C(=O)Nc2nc(-c3ccc4c(c3)CCC4)cs2)cc1` [Compound A-73] yielded an EC50 of 0.075 µM.
Compound `CCOC(=O)/C(Cl)=C/c1ccc(C(=O)Nc2nc(-c3cccc(OC(F)(F)F)c3)cs2)cc1` [Compound A-31] has an EC50 of 0.056 µM.
With `C/C(=C\c1ccc(C(=O)Nc2nc(-c3ccc(Cl)c(Cl)c3)cs2)cc1)C(=O)NCc1ccc(C(F)(F)F)cc1` [Compound B-13] the EC50 was 0.213 µM.
Work on `O=C(O)/C(Cl)=C/c1ccc(C(=O)Nc2nc(-c3ccc(F)c(F)c3)cs2)cc1` [Compound A-36] yielded an EC50 of 0.095 µM.
`Cc1sc(NC(=O)c2ccc(/C=C(\Cl)C(=O)O)cc2)nc1-c1cccc(Br)c1` [Compound J-13] was tested, and the EC50 was 0.116 µM.
For `CC(=Cc1ccc(C(=O)Nc2nc(-c3ccc(Cl)c(Cl)c3)cs2)cc1)C(=O)N1CCOCC1` [Compound B-8], the EC50 was 0.378 µM.
`O=C(O)/C(Cl)=C/c1ccc(C(=O)Nc2nc(-c3c(F)cccc3F)cs2)cc1` [Compound A-51] was tested, and the EC50 was 0.568 µM.
Compound `CCCNC(=O)C(C)=Cc1ccc(C(=O)Nc2nc(-c3ccc(Cl)c(Cl)c3)cs2)cc1` [Compound B-7] has an EC50 of 0.059 µM.
Work on `O=C(O)/C(F)=C/c1ccc(C(=O)Nc2nc(-c3cccc(C(F)(F)F)c3)cs2)cc1` [Compound A-44] yielded an EC50 of 0.227 µM.
